Source: patent US6982273B1, “Compositions and methods containing bioavailable Se-methyl-L-selenocysteine for human and veterinary use” (Sami Labs Ltd., priority 2002, dated 2006)

Legend:
glutathione peroxidase = conditions: selenium-depleted animals; efficiency: Se-methylselenocysteine > dimethyl selenoxide > trimethylselenonium; cited from earlier work
[1] = tested on: rats with macrophage associated liver injury and endotoxemia; assay: Suppression of macrophage associated liver injury and endotoxemia (P. acnes + LPS) in rats; type: in vivo, rat; conditions: Se-methyl-L-selenocysteine 4 mg/kg, composition 2 mg/kg
Experimental: The composition used consisted of Se-methyl-L-selenocysteine of the parent application to which piperine from black pepper fruit was added such that the animals received a co-administered daily dose of 5 mg of piperine.
Study Design: Male Wistar King A rats (200–250 g) were maintained on a basal pelleted diet and water ad libitum under normal temperature and lighting conditions. All rats received an injection of 40 mg/kg body weight of heat killed Propionibacterium acnes (ATCC 11827), 20 mg/ml suspension in saline via the tail vein on day 1. Seven days later they received an intravenous injection of 350 mcg/kg body weight of lipopolysaccharide (LPS, Difco Laboratories, MI, USA), 200 mcg/ml solution in saline). 5 rats received a daily dose of 4 mg/kg body weight of Se-methyl-L-selenocysteine and 5 rats received 2 mg/kg body weight of the composition of the invention, orally for 3 days in the feed, 4 control rats received no supplementation, prior to induction of liver injury, 4 normal controls were not subjected to liver injury. Serum levels of TNF-α were measured. TNF-α is thought to be the principal mediator of the deleterious effects of LPS.

[2] = tested on: dimethyl-benz(a)anthracene-induced mammary tumor; conditions: 1–2 ppm Se in diet from 1 week before DMBA until sacrifice; order of efficacy: Se-methylselenocysteine > selenite > selenocysteine > dimethyl selenoxide; cited from earlier work

Row | SMILES | ability to restore glutathione peroxidase activity (glutathione peroxidase) | chemopreventive activity (tumor inhibition) [2] | also measured
1 | C[Se]C[C@H](N)C(=O)O [Se-methyl-L-selenocysteine] | fully replete | tumor inhibition | Catalase ([1]; oral 3 days): 31.16 ± 3.95 micromole of H2O2 consumed/min; Glutathione (GSH) ([1]; oral 3 days): 7.43 ± 0.69 mcg/mg protein; Glutathione peroxidase ([1]; oral 3 days): 8.13 ± 0.71 micromole of GSH oxidized/min/; Serum Lipid peroxides ([1]; oral 3 days): 2.71 ± 0.32 MDA formed/mg protein; Superoxide dismutase ([1]; oral 3 days): 4.91 ± 0.48 Units/min/mg protein; TNF-alpha (serum) ([1]; oral 3 days): 81 ± 6 ng/mL; Survival rate ([1]; oral in feed 3 days before injury, survivors/n): 3/5
2 | C[Se](C)=O [dimethyl selenoxide] | fully replete | tumor inhibition | –
3 | O=[Se](O)O [selenite] | – | tumor inhibition | –
4 | N[C@@H](C[SeH])C(=O)O [selenocysteine] | – | tumor inhibition | –
5 | C[Se+](C)C [trimethylselenonium] | fully replete | – | –
